Series [1] concerns nitric oxide synthase (NOS) / spinal NR2B-containing NMDA receptors. The note with it: rats, cited from earlier work.
The subject of another series is plasma glutamate. The note with it: neurosurgical patients, anesthesia; cited from earlier work.
The subject of a further series is blood glutamate levels. The note with it: rat; cited from earlier work.
Series [2] can be described thus: Exposure control (pharmacokinetics) in NOSTRA III patients. Particulars: TBI patients; for mean absolute concentration 12 hours after end of infusion / mean absolute concentration at the end of the infusion: Ronopterin 17 mg/kg infused for 48 hours. The class given is in vivo, human. How it is done:
An exposure control was performed with samples collected after end of infusion and 12 hours after end of infusion.

The target of another series is iNOS (Homo sapiens, UniProt P35228). Kind of series: In vitro iNOS inhibition. It is filed as biochemical.
The subject of series [3] is C57 BL/6 mice, controlled cortical impact (CCI) model. Kind of series: Controlled cortical impact (CCI) model in mice, intracranial pressure (ICP). The class given is in vivo. The note with it: for therapeutic activity of metabolites of VAS203: mouse, in vivo. The source says:
The primary objective of this experiment was the characterization of the intracranial pressure (ICP) reduction by VAS3384 in the controlled cortical impact (CCI) model in mice. The secondary objective was characterization of the neuroprotective effect (reduction of the lesion volume) of VAS3384 in the controlled cortical impact model in mice.
• Test compound A • Denomination: VAS 3384 • Active agent: 4-Amino-4-desoxy-7,8-dihydrobiopterin-dihydrochloride, obtained from Schircks Laboratories, Bauma, Switzerland • Detailed composition: VAS 3384 dissolved in sodium phosphate buffer (PBS) pH 7.4 • Formulation method: 15 mg of the test compound (VAS 3384) are dissolved in 500 μl PBS, pH 7.4. The solution is neutralized with 72 μl 1 N NaOH and filled up with 428 μl water (check pH). • Final concentration of active agent: 15 mg/ml • Appearance: yellow, clear solution • Storage (solid test compound): −20° C. • Dose applied: 560 mg/kg or 37.3 ml/kg • Way of administration: intravenous injection/infusion • Negative control • Denomination: sodium phosphate buffer (PBS) • Active agent: none • Detailed composition: Na2HPO4, NaH2PO4, 100 mM pH 7.4 • Formulation method: ready for use • Final concentration of active agent: not applicable • Appearance: colourless, clear solution • Expiration date: 3 months after preparation • Volume applied: 37.3 ml/kg • Way of administration: intravenous injection/infusion Experimental Procedure
The animals (C57 BL/6 mice), under Dormicum/Methidomidin/Fentanyl-narcosis were fixed in a stereo tactical frame and the scalp was opened with a cut along the median. The skull bone
was laid open and disinfected with H2O2. A hole of approx. 1.2 mm diameter was then drilled into the skull (Bregma 0.4-0.4 mm). The ICP-probe was introduced through this hole. The V. jugularis was be laid open and a catheter introduced. This catheter was introduced in the neck subcutaneously and fixed on the cap of the cage with a protective spiral of metal. This setup permitted an infusion in awake animals. The skull was opened above of the right cortex and mechanically traumatized (CCI model). The skullcap was then closed with the removed bone.
Mice 1-9: 10 minutes after the trauma the animals got an intravenous bolus injection of 20 mg/kg VAS 3384 (=1.33 ml/kg) followed by an infusion of 1.5 mg/kg/min (=100 μl/kg/min) VAS 3384 over six hours to maintain the dose. After six hours, after termination of the infusion, and after 24 hours the ICP of the animals was measured. After 24 hours the animals were sacrificed, the brains dissected and the lesion volume determined by Nissl's method.
Mice 10-18: 10 minutes after the trauma the animals received an intravenous bolus injection of 1.33 ml/kg PBS followed by an infusion of 100 μl/kg/min PBS over six hours. After six hours, after the termination of the infusion, and after 24 hours the ICP of the animals was measured.
At the end of the observation period animals were sacrificed by cervical dislocation in deep halothane anaesthesia. The brains were carefully removed, frozen in powdered dry ice, and stored at −20° C. until further use. Ten μm coronal sections were prepared every 500 μm on a cryostat (CryoStar HM 560, Microm, Walldorf, Germany) and stained with cresyl violet. Sections were photographed with a digital camera system. The contusion area, the area of the non-traumatized tissue of the ipsilateral hemisphere, and the area of the contralateral hemisphere were determined on the digitized images with a standard image analysis software (Optimate 6.51, Media Cybernetics, Silver Spring, MD, USA) by an investigator blinded to the treatment of the animals. In order to correct for the swelling of contused tissue, the contusion area was calculated by subtracting the area of the non-traumatized tissue of the ipsilateral hemisphere from the area of the contralateral hemisphere. […]

Series [4] in a line: Plasma pharmacokinetics after single rectal administration of VAS203 gel in rabbits. It is filed as in vivo. How it is done: In this Example, VAS203 was formulated as a gel at a concentration of 450 mg VAS203/ml for single rectal administration in rabbits. This formulation of VAS203 as a gel (450 mg/ml) was filled in 2 ml syringes pact in foil with an oxygen absorber.
Six rabbits were dosed with 1.5 ml of VAS203 gel (corresponding to a dosage of about 200 mg VAS203/kg body weight). Blood collection was carried out at pre-dose, 10 min, 20 min, 40 min, 1 h, 2 h, 3 h, 4 h, 5 h, 6 h, and 20-26 h after rectal administration. The whole blood samples (ca. 1-2 ml sufficient to obtain approx. 0.3 mL EDTA plasma/animal/sampling time), were collected into pre-cooled EDTA vials. To stabilise the blood samples, 1 mg Dithioerythritol (DTE) was added to approx. 1 mL blood. Within 15 minutes of blood collection the samples were centrifuged at 4° C. for 10 minutes. The plasma was transferred to vials and immediately frozen and stored at −80° C. for analysis.
The plasma concentrations (in μg/L) of VAS203, 7,8-Dihydroaminobiopterin (VAS3384, ABH2, the compound of formula (II) as shown in here) and Aminobiopterin (VAS3382, AB) were measured by liquid chromatography mass spectrometry (LC-MS).

[5] abbreviates: rabbits, single rectal VAS203 gel, about 200 mg/kg.

Molecules are shown by their SMILES.

As for `O=[N+]([O-])c1cccc2cn[nH]c12` [7-nitroindazole], the oxaliplatin-induced pain behavior entry in series [1] is reported as “significantly suppressed”.
For `FC(F)OC(Cl)C(F)(F)F` (stereo not drawn) [Isoflurane], the plasma glutamate entry with plasma glutamate is listed as “significantly increase”.
`COC(=O)[C@@H](N)CCCNC(=N)N[N+](=O)[O-]` [L-NAME]: the oxaliplatin-induced pain behavior result in series [1] is listed as “significantly suppressed”.
Consider `N[C@@H](Cc1cc(I)c(Oc2cc(I)c(O)c(I)c2)c(I)c1)C(=O)O` [L-thyroxine], for which, in the series on blood glutamate levels, the blood glutamate levels entry is reported as “increased”.
`C[C@@H](CN1CCC(Cc2ccccc2)CC1)[C@@H](O)c1ccc(O)cc1` [Ro25-6981]: the “oxaliplatin-increased intensity of NADPH diaphorase staining in the superficial layer of spinal dorsal horn” value in series [1] (intrathecal injection) is “reversed”.
`CC(O)C(O)C1=Nc2c(N)nc(N)nc2NC1` [VAS3384, 4-Amino-(6R,S)-7,8-dihydro-L-biopterin]: in series [2], the “elimination 12 hours after end of infusion” value is 56%, the “mean absolute concentration 12 hours after end of infusion” value was determined as 476 ng/mL and the “mean absolute concentration at the end of the infusion” value was 1071 ng/mL. For the same molecule, at iNOS, the IC50 came out at 12 µM and the “potency to inhibit the i-NOS in comparison to VAS203” value is given as “about ten times less potency”. The “ICP after 6 hours” value in series [3] (CCI mice, i.v. infusion of 560 mg/kg over 6 h, mean +/- SD, n=9/group, placebo 14.1+/−1.8, p=0.0005) was 10.4+/−1.9. Moreover, the “ICP after 24 hours” value in series [3] (CCI mice, i.v. infusion of 560 mg/kg over 6 h, placebo 10.7+/−2.3, non-significant) is on record as 10.3+/−1.7. Also, the “reduction of the increased ICP compared with the placebo group” value in series [3] (infusion of 560 mg/kg for six hours, starting 10 minutes after CCI) is “significantly reduction of the increased ICP”. In series [3], the “therapeutic activity of metabolites of VAS203” value is listed as “still active”. The half-life in series [4] (rabbit, in vivo, 200 mg/kg) is approximately 1.33 h.
For `C[C@H](O)[C@@H](O)c1cnc2nc(N)nc(N)c2n1` [aminobiopterin, Aminobiopterin], in series [2], the “mean absolute concentration 12 hours after end of infusion” value was determined as 37 ng/mL and the “mean absolute concentration at the end of the infusion” value worked out at 52 ng/mL. Further, the “therapeutic activity of metabolites of VAS203” value in series [3] is on record as “no therapeutic activity”. In series [4] (setting [5]), the elimination half-life result is recorded as “approximately 4 hours” and the “time to reach plateau of plasma concentration” value is listed as “approx. 50 minutes”.
In the case of `CC(C)c1cccc(C(C)C)c1O` [propofol], in the series with plasma glutamate, the plasma glutamate entry was “significantly increase”.

These data come from patent publication US12465609B2, “Methods of treating patients suffering from a disease condition or disorder that is associated with an increased glutamate level” (veriNOS operations GmbH, priority 2022, dated 2025).
